Here are results for twelve compounds from ChEMBL document CHEMBL1201862, “PubChem BioAssay data set” (2004).

The structures appear in SMILES notation.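 Cultured in 96-well plates, cells were exposed to test compound for 48 hours across five concentrations. Abbreviation: GI50, concentration required for 50% inhibition of growth.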 Calls of active or inactive are those of the source. Cut-off read from the data, not from the text of the source: active = GI50 up to about 1.1 µM and inactive = higher.

Among the test systems are HT-29; KM12; CAKI-1; SNB-75; M14; UACC-257; IGROV-1; SNB-78; EKVX; NCI-H23; UACC-62; SK-MEL-2; CCRF-CEM; 786-0; TK-10; NCI-H226; OVCAR-8.
Holding throughout (assay): NCI-60 cell line screen, 48 h

Turning to `O=C(O)CCC1(Br)CCCCC(Br)C1=O` (stereo unspecified), the GI50 is > 100 µM (inactive) in the test with HT-29; > 10 µM (inactive) with KM12; > 100 µM (inactive) with CAKI-1; 35.9 µM (inactive) in the test with SNB-75; > 100 µM (inactive) with M14; > 100 µM (inactive) with UACC-257. Also, the GI50 in the test on IGROV-1 was > 100 µM (inactive); in the test with SNB-78, > 100 µM (inactive); in the test with EKVX, > 100 µM (inactive); in the test with NCI-H23, > 100 µM (inactive); with UACC-62, > 100 µM (inactive); in the test with SK-MEL-2, 77.4 µM (inactive). Also, the GI50 in the test on CCRF-CEM is 95.3 µM (inactive); in the test on 786-0, > 100 µM (inactive); in the test with TK-10, > 100 µM (inactive); in the test on NCI-H226 it was > 100 µM (inactive); with OVCAR-8, > 100 µM (inactive).
Turning to `N/N=C(/Cc1nc2ccc(C(=O)c3ccccc3)cc2nc1O)C(=O)Nc1ccc([N+](=O)[O-])cc1[N+](=O)[O-]`, the GI50 with HT-29 is > 10 µM (inactive); with KM12 it was > 100 µM (inactive); in the test on CAKI-1 it was > 100 µM (inactive); in the test on SNB-75 it was > 10 µM (inactive); in the test with M14 it was > 10 µM (inactive); with UACC-257 it was > 100 µM (inactive). The GI50 in the test on IGROV-1 is > 10 µM (inactive); with SNB-78 it was > 10 µM (inactive); in the test on EKVX, > 100 µM (inactive); in the test on NCI-H23 it was > 10 µM (inactive); in the test with UACC-62 it was 49 µM (inactive); in the test with SK-MEL-2 it was > 10 µM (inactive). The GI50 was > 10 µM (inactive) with CCRF-CEM; 71.9 µM (inactive) in the test on 786-0; > 100 µM (inactive) in the test with TK-10; > 10 µM (inactive) in the test with NCI-H226; 81.8 µM (inactive) in the test on OVCAR-8.
With `c1nc2cscc2c2cscc12`, the GI50 is > 100 µM (inactive) with HT-29; > 100 µM (inactive) in the test with KM12; 42.8 µM (inactive) in the test with CAKI-1; > 100 µM (inactive) in the test with M14; > 100 µM (inactive) in the test with UACC-257; > 100 µM (inactive) with IGROV-1. For the same compound, the GI50 in the test with SNB-78, with NCI-H23, with UACC-62, in the test on SK-MEL-2, in the test with CCRF-CEM and with 786-0 was > 100 µM (inactive) in each case. For the same compound, the GI50 with TK-10 is > 100 µM (inactive); in the test on NCI-H226, 29.2 µM (inactive); in the test with OVCAR-8, > 100 µM (inactive).
In the case of `C[C@]12Cc3conc3C(O)=C1CC[C@@H]1C2CC[C@@]2(C)C1CC[C@@H]2O` (stereo partly specified), the GI50 was 19.7 µM (inactive) with HT-29; 12 µM (inactive) in the test with KM12; 8.24 µM (inactive) with CAKI-1; 9.77 µM (inactive) in the test with SNB-75; 12.4 µM (inactive) with M14; 21.3 µM (inactive) with UACC-257. Moreover, the GI50 in the test with IGROV-1 was 26 µM (inactive); in the test with SNB-78, 22.2 µM (inactive); with EKVX, 17.5 µM (inactive); in the test with NCI-H23 it was 18.1 µM (inactive); in the test with UACC-62 it was 4.99 µM (inactive); in the test on SK-MEL-2 it was 0.634 µM (active). Moreover, the GI50 in the test with CCRF-CEM is 7.62 µM (inactive); in the test with 786-0, 16.1 µM (inactive); in the test with TK-10 it was 24.3 µM (inactive); in the test on NCI-H226, 18 µM (inactive); with OVCAR-8, 25.8 µM (inactive).
Take `CC1(c2cccc3ccccc23)OC(=O)c2ccccc21` (stereo unspecified): the GI50 is 20.7 µM (inactive) in the test with HT-29; 25.1 µM (inactive) in the test with KM12; 15 µM (inactive) in the test with CAKI-1; 10 µM (inactive) in the test with SNB-75; 18.2 µM (inactive) in the test with M14; 22.2 µM (inactive) in the test on UACC-257. Further, the GI50 in the test on IGROV-1 was 19.2 µM (inactive); in the test on SNB-78, 41.7 µM (inactive); with EKVX, 30.1 µM (inactive); in the test with NCI-H23, 16 µM (inactive); in the test with UACC-62, 12 µM (inactive); in the test with SK-MEL-2 it was 21.3 µM (inactive). The GI50 with CCRF-CEM was 14.3 µM (inactive); in the test on 786-0 it was 26.2 µM (inactive); with TK-10, 70.6 µM (inactive); in the test with NCI-H226, 22.7 µM (inactive); with OVCAR-8 it was 28.1 µM (inactive).
`C/C(=N\NC(N)=O)c1sc(-c2nc(C)c(/C(C)=N/NC(N)=O)s2)nc1C`: the GI50 in the test with HT-29, with KM12, with CAKI-1, in the test on SNB-75, with M14 and in the test on UACC-257 was > 100 µM (inactive) in each case. Moreover, the GI50 in the test on IGROV-1 is > 100 µM (inactive); with SNB-78, > 100 µM (inactive); in the test on EKVX it was 21.5 µM (inactive); in the test on NCI-H23, > 100 µM (inactive); in the test with UACC-62, > 100 µM (inactive); in the test with SK-MEL-2, > 100 µM (inactive). The GI50 in the test on CCRF-CEM is 90.4 µM (inactive); in the test on 786-0, > 100 µM (inactive); in the test with TK-10, > 100 µM (inactive); with NCI-H226, > 100 µM (inactive); in the test on OVCAR-8 it was > 100 µM (inactive).
As to `COC(=O)NC(=O)c1cn(C2CCCCC2)c(=O)[nH]c1=O`, the GI50 with HT-29, in the test with KM12, with CAKI-1, in the test on SNB-75, in the test with M14 and in the test with UACC-257 was > 100 µM (inactive) throughout. For the same compound, the GI50 in the test on IGROV-1, in the test with SNB-78, in the test with NCI-H23, with UACC-62, in the test on SK-MEL-2 and with CCRF-CEM was > 100 µM (inactive) each time. The GI50 in the test on 786-0, in the test on TK-10, with NCI-H226 and in the test with OVCAR-8 was > 100 µM (inactive) each time.
Turning to `CC(=O)O[C@]1(C)CCC2C(C)C(=O)OC2C2C(C)[C@@H](O)CC21` (stereo partly specified), the GI50 is 31.5 µM (inactive) in the test with HT-29; 49.8 µM (inactive) in the test with KM12; 47.2 µM (inactive) with CAKI-1; 60.5 µM (inactive) with SNB-75; 20.8 µM (inactive) with M14; > 100 µM (inactive) with UACC-257. Besides, the GI50 in the test on IGROV-1 was 40.7 µM (inactive); in the test with SNB-78, 74 µM (inactive); in the test on EKVX, 67.5 µM (inactive); in the test on NCI-H23 it was 36.6 µM (inactive); with UACC-62 it was 33.9 µM (inactive); in the test on SK-MEL-2, 20.3 µM (inactive). In addition, the GI50 is 23.8 µM (inactive) with CCRF-CEM; 31.4 µM (inactive) in the test with 786-0; 42.6 µM (inactive) with TK-10; 31.4 µM (inactive) with NCI-H226; 87.9 µM (inactive) with OVCAR-8.
Turning to `COc1ccccc1/C=C(\C#N)C(=O)c1ccccc1`, the GI50 with HT-29, in the test with KM12, in the test with CAKI-1, with M14, with UACC-257 and in the test with IGROV-1 was > 100 µM (inactive) in each case. Moreover, the GI50 in the test with SNB-78, in the test with EKVX, in the test on NCI-H23, with UACC-62, with SK-MEL-2 and in the test on CCRF-CEM was > 100 µM (inactive) throughout. Further, the GI50 with 786-0, in the test with NCI-H226 and in the test on OVCAR-8 was > 100 µM (inactive) each time.
For `Cc1ccc(S(=O)(=O)c2ccc(N)cc2)cc1`, the GI50 is > 100 µM (inactive) in the test with HT-29; 47.6 µM (inactive) in the test with KM12; 97.9 µM (inactive) with CAKI-1; > 100 µM (inactive) in the test with SNB-75; > 100 µM (inactive) in the test with M14; > 100 µM (inactive) with UACC-257. The GI50 with IGROV-1, in the test on SNB-78, in the test with EKVX, in the test with NCI-H23, in the test on UACC-62 and in the test with SK-MEL-2 was > 100 µM (inactive) throughout. For the same compound, the GI50 is > 100 µM (inactive) in the test with CCRF-CEM; > 100 µM (inactive) in the test with 786-0; > 100 µM (inactive) with TK-10; > 10 µM (inactive) with NCI-H226; > 100 µM (inactive) in the test with OVCAR-8.
With `O=C1C(=O)N(C2C3CC4CC(C3)CC2C4)C(=O)C(=O)C1c1nc2ccccc2o1` (stereo unspecified), the GI50 in the test with HT-29 was 20.7 µM (inactive); with KM12, > 100 µM (inactive); in the test on CAKI-1, > 100 µM (inactive); with SNB-75, 33.1 µM (inactive); in the test on M14 it was 83 µM (inactive); with UACC-257, 26.1 µM (inactive). Moreover, the GI50 is 42.3 µM (inactive) in the test with IGROV-1; > 100 µM (inactive) with SNB-78; > 100 µM (inactive) with EKVX; 41.6 µM (inactive) with NCI-H23; > 100 µM (inactive) in the test on UACC-62; > 100 µM (inactive) in the test on SK-MEL-2. Besides, the GI50 is 26.3 µM (inactive) in the test with 786-0, > 100 µM (inactive) with TK-10, > 100 µM (inactive) with NCI-H226 and > 100 µM (inactive) with OVCAR-8.
For `CC(=O)Nc1ccc(C(=O)N2N=C(C)/C(=C/c3ccccc3O)C2=O)cc1`, the GI50 in the test with HT-29, in the test on KM12, in the test on CAKI-1, with SNB-75, in the test with M14 and in the test with UACC-257 was > 100 µM (inactive) throughout. Besides, the GI50 in the test with SNB-78, in the test on EKVX, in the test with NCI-H23, in the test with SK-MEL-2, in the test on CCRF-CEM and in the test on 786-0 was > 100 µM (inactive) in each case. The GI50 in the test on TK-10, in the test on NCI-H226 and with OVCAR-8 was > 100 µM (inactive) throughout.
